{
  "source": "patent US12649059B2",
  "about": "“Methods for reducing bleeding in hemophilia by vagus nerve stimulation to prime platelets” (The Feinstein Institutes for Medical Research, priority 2022, dated 2026)",
  "key": {"a7nAChR [1]": {"molecular_target": "a7nAChR (Mus musculus, UniProt P49582)", "sequence (P49582 23-502)": "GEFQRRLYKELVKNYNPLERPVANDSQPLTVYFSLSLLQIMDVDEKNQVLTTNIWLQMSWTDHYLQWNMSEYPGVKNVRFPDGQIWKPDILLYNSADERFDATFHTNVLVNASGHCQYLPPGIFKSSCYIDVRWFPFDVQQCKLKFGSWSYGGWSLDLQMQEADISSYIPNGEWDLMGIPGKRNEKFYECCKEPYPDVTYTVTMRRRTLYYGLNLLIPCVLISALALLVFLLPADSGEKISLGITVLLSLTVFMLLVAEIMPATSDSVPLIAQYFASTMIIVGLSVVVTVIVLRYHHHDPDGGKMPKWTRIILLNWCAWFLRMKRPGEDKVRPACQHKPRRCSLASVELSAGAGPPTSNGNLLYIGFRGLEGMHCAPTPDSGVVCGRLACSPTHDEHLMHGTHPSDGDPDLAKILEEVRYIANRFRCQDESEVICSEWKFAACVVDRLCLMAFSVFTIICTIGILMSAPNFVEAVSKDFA", "excerpt": "(§1) To confirm platelet a7nAChR modulates hemostasis, we first administered the pharmacological a7nAChR agonist nicotine to wild-type mice before tail injury. […] To restrict a7nAChR to platelets, we transferred platelets from wild-type or a7KO donor mice into a7nAChR-deficient animals before tail transection.\n(§2) Mice are screened before study inclusion to ensure visual similarity and consistency between the anatomy of the tail tips and the site of transection. […] Following vagus nerve stimulation or sham surgery, tails are immersed in water at 37+1° C. for five minutes. Tails are then removed from the solution, amputated 2 mm from the tip with a razor blade, and immediately placed into a 50 mL beaker containing water at 37+1° C. Tails are allowed to bleed uncontrolled until bleeding stops for a minimum of ten seconds. This duration of bleeding is recorded as bleeding time. For analyses of bleeding in factor VIII deficient mice, tails are first immersed in 0.9% saline at 37±1° C. for five minutes. Tails are then removed and amputated 2 mm from the tip with a razor blade. Tails are then placed into a 50 mL conical tube containing 0.9% saline at 37±1° C. Tails are allowed to bleed freely for a total of ten minutes. Total blood loss is determined by densitometry by measuring absorbance at 550 nm. A standard curve is created from a known volume of blood."}, "a7nAChR [2]": {"test_system": "a7nAChR", "excerpt": "as §1, §2"}},
  "note": "Read-outs that look alike come from different tables or passages of the source.",
  "data": [
    {"smiles": "CN1CCCC1c1cccnc1", "note": "(stereo not shown) [nicotine]", "values": [
      {"measurement": "bleeding time as compared with vehicle treatment", "setting": "a7nAChR [1]; a7nAChR-deficient mice reconstituted with wild-type platelets, FIG. 2H, p<0.05 vs. vehicle control", "result": "significantly reduces bleeding time"},
      {"measurement": "bleeding time as compared with vehicle treatment", "setting": "a7nAChR [1]; wild-type mice, nicotine before tail injury, FIG. 2G, p<0.01 vs. vehicle control", "result": "significantly decreases bleeding time"},
      {"measurement": "bleeding time as compared with vehicle treatment", "setting": "a7nAChR [2]; a7nAChR-deficient mice receiving platelets from a7KO donors, FIG. 2H", "result": "not"},
      {"measurement": "bleeding time as compared with vehicle treatment", "setting": "a7nAChR [2]; a7nAChR-deficient mice, nicotine before tail transection, FIG. 2G", "result": "fails to reduce bleeding time"}
    ]}
  ]
}
